Results from PubChem BioAssay (NCI).
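Where inhibition never reached the appropriate level, the endpoint shown equals the highest concentration tested. Otherwise, values were interpolated linearly from a five-concentration, 48-hour dose response in 96-well plates. GI50 is the concentration that inhibits growth by half. TGI: total growth inhibition.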

How the values were obtained:
Experiment in all cases: inhibition of tumour cell growth, NCI panel, 48 h
[1] = test system: SNB-75 CNS
[2] = test system: NCI-H226 lung
[3] = test system: SK-OV-3 ovarian
[4] = test system: HCC-2998 colon
[5] = test system: SW-620 colon
[6] = test system: UO-31 renal
[7] = test system: UACC-257 melanoma
[8] = test system: CCRF-CEM leukemia
[9] = test system: A498 renal
[10] = test system: UACC-62 melanoma
[11] = test system: RXF 393 renal
[12] = test system: MDA-MB-231 breast
[13] = test system: COLO 205 colon
[14] = test system: TK-10 renal
[15] = test system: SR leukemia
[16] = test system: PC-3 prostate
[17] = test system: ACHN renal
[18] = test system: SF-295 CNS
[19] = test system: A549 NSCLC
[20] = test system: HCT-116 colon
[21] = test system: CAKI-1 renal
[22] = test system: HOP-62 NSCLC
[23] = test system: SN12C renal
[24] = test system: SF-539 CNS
[25] = test system: IGROV1 ovarian
[26] = test system: OVCAR-4 ovarian
[27] = test system: NCI-H23 lung
[28] = test system: HOP-92 NSCLC
[29] = test system: SK-MEL-28 melanoma
[30] = test system: SK-MEL-2 melanoma
[31] = test system: SNB-19 CNS
[32] = test system: BT-549 breast
[33] = test system: U251 CNS
[34] = test system: OVCAR-8 ovarian
[35] = test system: KM12 colon
[36] = test system: DU-145 prostate
[37] = test system: MALME-3M melanoma
[38] = test system: SF-268 CNS
[39] = test system: 786-0 renal
[40] = test system: MOLT-4 leukemia
[41] = test system: EKVX NSCLC
[42] = test system: HT29 colon
[43] = test system: SK-MEL-5 melanoma
[44] = test system: NCI-H460 lung
[45] = test system: HS 578T breast
[46] = test system: OVCAR-5 ovarian
[47] = test system: MCF7 breast
[48] = test system: T-47D breast
[49] = test system: HL-60(TB) leukemia
[50] = test system: OVCAR-3 ovarian
[51] = test system: NCI/ADR-RES ovarian
[52] = test system: HCT-15 colon
[53] = test system: MDA-MB-435
[54] = test system: K-562 leukemia
[55] = test system: LOX IMVI melanoma

**Q.** For `CN(C)S(=O)(=O)c1ccc(-c2nc(C(Cl)Cl)nc3cc(-c4ccc(F)cc4)nn23)cc1`, which GI50 [1] is on record?
**A.** Its GI50 is 5.37 µM.

**Q.** What about the TGI [1] of the same compound?
**A.** Its TGI is 56.4 µM.

**Q.** And the GI50 [2]?
**A.** The GI50 was 2.77 µM.

**Q.** What about the TGI [2] of the same compound?
**A.** Its TGI is 25.6 µM.

**Q.** And the GI50 [3]?
**A.** The GI50 was 2.15 µM.

**Q.** And the TGI [3]?
**A.** Its TGI is 7.79 µM.

**Q.** And the GI50 [4]?
**A.** The GI50 was 1.43 µM.

**Q.** What about the TGI [4] of the same compound?
**A.** The TGI was 2.92 µM.

**Q.** And the GI50 [5]?
**A.** Its GI50 is 0.891 µM.

**Q.** And the TGI [5]?
**A.** Its TGI is 3.31 µM.

**Q.** And the GI50 [6]?
**A.** The GI50 was 2.14 µM.

**Q.** And the TGI [6]?
**A.** The TGI was 7.26 µM.

**Q.** What about the GI50 [7] of the same compound?
**A.** Its GI50 is 3.15 µM.

**Q.** What about the TGI [7] of the same compound?
**A.** The TGI was 16.6 µM.

**Q.** And the GI50 [8]?
**A.** The GI50 was 1.87 µM.

**Q.** And the TGI [8]?
**A.** The TGI was greater than 100 µM.

**Q.** And the GI50 [9]?
**A.** The GI50 was 1.76 µM.

**Q.** And the TGI [9]?
**A.** Its TGI is 8.32 µM.

**Q.** And the GI50 [10]?
**A.** Its GI50 is 1.3 µM.

**Q.** And the TGI [10]?
**A.** Its TGI is 2.94 µM.

**Q.** What about the GI50 [11] of the same compound?
**A.** The GI50 was 1.4 µM.

**Q.** What about the TGI [11] of the same compound?
**A.** Its TGI is 3.87 µM.

**Q.** And the GI50 [12]?
**A.** The GI50 was 1.75 µM.

**Q.** What about the TGI [12] of the same compound?
**A.** Its TGI is 6.28 µM.

**Q.** And the GI50 [13]?
**A.** Its GI50 is 1.62 µM.

**Q.** What about the TGI [13] of the same compound?
**A.** Its TGI is 4.23 µM.

**Q.** And the GI50 [14]?
**A.** Its GI50 is 3.11 µM.

**Q.** What about the TGI [14] of the same compound?
**A.** Its TGI is 13.1 µM.

**Q.** And the GI50 [15]?
**A.** Its GI50 is 0.32 µM.

**Q.** What about the TGI [15] of the same compound?
**A.** The TGI was greater than 100 µM.

**Q.** And the GI50 [16]?
**A.** The GI50 was 2.25 µM.

**Q.** What about the TGI [16] of the same compound?
**A.** The TGI was 8.56 µM.

**Q.** And the GI50 [17]?
**A.** The GI50 was 0.925 µM.

**Q.** What about the TGI [17] of the same compound?
**A.** Its TGI is 3.61 µM.

**Q.** What about the GI50 [18] of the same compound?
**A.** The GI50 was 1.77 µM.

**Q.** What about the TGI [18] of the same compound?
**A.** The TGI was 6.66 µM.

**Q.** What about the GI50 [19] of the same compound?
**A.** The GI50 was 1.88 µM.

**Q.** What about the TGI [19] of the same compound?
**A.** The TGI was 5.7 µM.

**Q.** What about the GI50 [20] of the same compound?
**A.** Its GI50 is 0.986 µM.

**Q.** What about the TGI [20] of the same compound?
**A.** Its TGI is 3.22 µM.

**Q.** What about the GI50 [21] of the same compound?
**A.** Its GI50 is 1.53 µM.

**Q.** And the TGI [21]?
**A.** Its TGI is 4.71 µM.

**Q.** And the GI50 [22]?
**A.** The GI50 was 2.08 µM.

**Q.** And the TGI [22]?
**A.** Its TGI is 8.37 µM.

**Q.** And the GI50 [23]?
**A.** The GI50 was 2.18 µM.

**Q.** And the TGI [23]?
**A.** The TGI was 27.7 µM.

**Q.** What about the GI50 [24] of the same compound?
**A.** Its GI50 is 2.15 µM.

**Q.** And the TGI [24]?
**A.** The TGI was 7.55 µM.

**Q.** What about the GI50 [25] of the same compound?
**A.** The GI50 was 1.44 µM.

**Q.** And the TGI [25]?
**A.** Its TGI is 4.65 µM.

**Q.** And the GI50 [26]?
**A.** The GI50 was 2.4 µM.

**Q.** And the TGI [26]?
**A.** The TGI was 8.14 µM.

**Q.** What about the GI50 [27] of the same compound?
**A.** Its GI50 is 1.45 µM.

**Q.** And the TGI [27]?
**A.** Its TGI is 3.4 µM.

**Q.** What about the GI50 [28] of the same compound?
**A.** The GI50 was 1.79 µM.

**Q.** And the TGI [28]?
**A.** Its TGI is 5.75 µM.

**Q.** What about the GI50 [29] of the same compound?
**A.** The GI50 was 2.01 µM.

**Q.** And the TGI [29]?
**A.** The TGI was 5.4 µM.

**Q.** And the GI50 [30]?
**A.** The GI50 was 2.89 µM.

**Q.** What about the TGI [30] of the same compound?
**A.** The TGI was 9.35 µM.

**Q.** And the GI50 [31]?
**A.** Its GI50 is 2.28 µM.

**Q.** What about the TGI [31] of the same compound?
**A.** The TGI was 10.9 µM.

**Q.** What about the GI50 [32] of the same compound?
**A.** The GI50 was 2.29 µM.

**Q.** What about the TGI [32] of the same compound?
**A.** Its TGI is 9.99 µM.

**Q.** And the GI50 [33]?
**A.** Its GI50 is 1.05 µM.

**Q.** What about the TGI [33] of the same compound?
**A.** Its TGI is 2.98 µM.

**Q.** And the GI50 [34]?
**A.** The GI50 was 1.74 µM.

**Q.** What about the TGI [34] of the same compound?
**A.** The TGI was 7.58 µM.

**Q.** And the GI50 [35]?
**A.** The GI50 was 1.56 µM.

**Q.** What about the TGI [35] of the same compound?
**A.** Its TGI is 4.88 µM.

**Q.** And the GI50 [36]?
**A.** The GI50 was 1.59 µM.

**Q.** What about the TGI [36] of the same compound?
**A.** The TGI was 6.27 µM.

**Q.** And the GI50 [37]?
**A.** Its GI50 is 1.86 µM.

**Q.** What about the TGI [37] of the same compound?
**A.** Its TGI is 4.05 µM.

**Q.** What about the GI50 [38] of the same compound?
**A.** The GI50 was 2.58 µM.

**Q.** What about the TGI [38] of the same compound?
**A.** Its TGI is 11.1 µM.

**Q.** And the GI50 [39]?
**A.** Its GI50 is 9.42 µM.

**Q.** And the TGI [39]?
**A.** The TGI was greater than 100 µM.

**Q.** What about the GI50 [40] of the same compound?
**A.** The GI50 was 0.888 µM.

**Q.** And the TGI [40]?
**A.** The TGI was greater than 100 µM.

**Q.** And the GI50 [41]?
**A.** The GI50 was 1.94 µM.

**Q.** And the TGI [41]?
**A.** The TGI was 5 µM.

**Q.** What about the GI50 [42] of the same compound?
**A.** Its GI50 is 0.494 µM.

**Q.** And the TGI [42]?
**A.** Its TGI is 2.15 µM.

**Q.** What about the GI50 [43] of the same compound?
**A.** Its GI50 is 1.97 µM.

**Q.** What about the TGI [43] of the same compound?
**A.** Its TGI is 4.22 µM.

**Q.** And the GI50 [44]?
**A.** The GI50 was 1.68 µM.

**Q.** And the TGI [44]?
**A.** Its TGI is 4.32 µM.

**Q.** And the GI50 [45]?
**A.** The GI50 was 2.63 µM.

**Q.** And the TGI [45]?
**A.** The TGI was 7.33 µM.

**Q.** And the GI50 [46]?
**A.** Its GI50 is 2.23 µM.

**Q.** What about the TGI [46] of the same compound?
**A.** Its TGI is 7.89 µM.

**Q.** And the GI50 [47]?
**A.** The GI50 was 2.46 µM.

**Q.** And the TGI [47]?
**A.** Its TGI is greater than 100 µM.

**Q.** And the GI50 [48]?
**A.** The GI50 was 3.7 µM.

**Q.** And the TGI [48]?
**A.** Its TGI is 56.9 µM.

**Q.** What about the GI50 [49] of the same compound?
**A.** Its GI50 is 1.3 µM.

**Q.** And the TGI [49]?
**A.** Its TGI is greater than 100 µM.

**Q.** What about the GI50 [50] of the same compound?
**A.** Its GI50 is 1.67 µM.

**Q.** And the TGI [50]?
**A.** Its TGI is 4.01 µM.

**Q.** And the GI50 [51]?
**A.** The GI50 was 1.01 µM.

**Q.** And the TGI [51]?
**A.** Its TGI is 4.66 µM.

**Q.** What about the GI50 [52] of the same compound?
**A.** Its GI50 is 1.13 µM.

**Q.** And the TGI [52]?
**A.** The TGI was 5.08 µM.

**Q.** What about the GI50 [53] of the same compound?
**A.** Its GI50 is 1.32 µM.

**Q.** What about the TGI [53] of the same compound?
**A.** Its TGI is 3.12 µM.

**Q.** What about the GI50 [54] of the same compound?
**A.** The GI50 was 0.929 µM.

**Q.** What about the TGI [54] of the same compound?
**A.** The TGI was greater than 100 µM.

**Q.** What about the GI50 [55] of the same compound?
**A.** The GI50 was 1.15 µM.

**Q.** And the TGI [55]?
**A.** The TGI was 6.36 µM.
